From patent publication US20240366809A1, “INHIBITOR OF PROSTATE SPECIFIC MEMBRANE ANTIGEN AND PHARMACEUTICAL USE THEREOF” (TIANJIN HENGRUI MEDICINE CO., LTD., priority 2021, published 2024)

Tests used:
rhPSMA [1] = biological target: T1, rhPSMA (Homo sapiens (Human), UniProt Q04609); assay: Tests for inhibitory activity against PSMA (Test Example 1); type: biochemical; details: rhPSMA 50 ng/well, substrate N-Acetyl-Asp-Glu, 37° C. 1 h
Protocol: • 1. Multifunctional microplate reader (SPARK, TECAN) • 2. rhPSMA (R&D, 4234-ZN) • 3. N-Acetyl-Asp-Glu (Sigma, A5930) • 4. OPA (Sigma, P0657)
PSMA inhibitors can bind to the enzyme PSMA to prevent the enzyme PSMA from decomposing the substrate N-Acetyl-Asp-Glu. In this experiment, the extent to which the substrate was decomposed and the resulting ultraviolet absorption changes were measured to evaluate the capacities of the PSMA inhibitors to bind to the enzyme PSMA, and the activity of the compounds was evaluated with IC50 values.
(§1) Buffer 1 (50 mM HEPES, 0.1 M NaCl, pH 7.5) was used to prepare a 0.4 μg/mL rhPSMA solution and a 40 μM solution of the substrate N-Acetyl-Asp-Glu. rhPSMA was mixed with the small molecules to be tested in a 96-well plate, with a constant rhPSMA content of 50 ng/well maintained. Meanwhile, the small molecules were step-wise diluted to final concentrations of 1 μM, 100 nM, 33.3 nM, 11.1 nM, 3.7 nM, 1.2 nM, 0.41 nM, 0.137 nM, 0.045 nM, and 0 nM. In addition, a positive control was set up using PSMA-617. The rhPSMA-small molecules were taken at 40 μL/well and well mixed with the 40 μM solution of the substrate N-Acetyl-Asp-Glu (40 μL/well). The mixtures were incubated at 37° C. in the dark for 1 h, were heated at 70° C. for 5 min to quench the reactions, and were cooled to room temperature. Buffer 2 (0.2 M NaOH, 0.1% beta-Mercaptoethanol) was used to prepare a 15 mM OPA solution. The OPA solution was added to the reaction systems at 80 μL/well and well mixed, and then the plate was incubated at room temperature for 10 min. The mixtures were taken at 100 μL/well and added to a 96-well Flat Black. With the excitation wavelength set to 330 nm and the emission wavelength to 465 nm, the intensity of signals was measured. IC50 values were obtained from dose-response curves.
The capacities of the compounds of the present disclosure to bind to the enzyme GCPII can be measured through the assay described above.

rhPSMA [2] = biological target: T1, rhPSMA; assay: Affinity assays using enzyme activity method (Test Example 2); type: biochemical
Protocol: as §1

T1 sequence (Q04609 44-750): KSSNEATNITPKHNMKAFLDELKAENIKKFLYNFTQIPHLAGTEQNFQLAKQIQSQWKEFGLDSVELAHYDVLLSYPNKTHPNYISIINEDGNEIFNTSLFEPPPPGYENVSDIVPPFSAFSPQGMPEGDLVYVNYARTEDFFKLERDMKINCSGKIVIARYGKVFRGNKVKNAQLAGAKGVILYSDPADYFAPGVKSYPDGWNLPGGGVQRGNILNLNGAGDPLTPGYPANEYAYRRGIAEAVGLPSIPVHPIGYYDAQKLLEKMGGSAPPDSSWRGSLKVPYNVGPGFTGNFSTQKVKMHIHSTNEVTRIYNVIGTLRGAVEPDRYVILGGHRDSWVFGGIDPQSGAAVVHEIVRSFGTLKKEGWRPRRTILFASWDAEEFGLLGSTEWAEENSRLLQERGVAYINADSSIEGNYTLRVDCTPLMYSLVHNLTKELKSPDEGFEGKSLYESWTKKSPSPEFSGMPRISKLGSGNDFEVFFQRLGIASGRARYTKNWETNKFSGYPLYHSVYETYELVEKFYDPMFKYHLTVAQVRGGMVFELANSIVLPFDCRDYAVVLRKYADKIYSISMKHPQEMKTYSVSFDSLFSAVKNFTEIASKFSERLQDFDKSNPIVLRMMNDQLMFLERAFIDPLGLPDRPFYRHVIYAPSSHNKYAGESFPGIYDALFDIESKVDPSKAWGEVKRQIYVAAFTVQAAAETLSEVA

IC50 (rhPSMA [1])	Ratio to PSMA-617 (rhPSMA [2]; ratio of IC50 values)	IC50 (rhPSMA [2]; rhPSMA 50 ng/well, substrate N-Acetyl-Asp-Glu, 37° C. 1 h)	SMILES
143 nM	–	–	NCc1cnn([C@@H](Cc2ccccc2)C(=O)NCCCC[C@H](NC(=O)N[C@@H](CCC(=O)O)C(=O)O)C(=O)O)c1
178 nM	–	–	N[C@@H](Cc1ccncc1)C(=O)NCCCC[C@H](NC(=O)N[C@@H](CCC(=O)O)C(=O)O)C(=O)O
2.4 nM	–	–	O=C(O)CC[C@H](NC(=O)N[C@@H](CCCCNC(=O)[C@H](Cc1ccc2ccccc2c1)NC(=O)C1CC12CCNCC2)C(=O)O)C(=O)O (some centres unmarked)
4.13 nM	–	–	O=C(O)CC[C@H](NC(=O)N[C@@H](CCCCNC(=O)[C@H](Cc1ccc2ccccc2c1)NC(=O)N1CCC(CNC(=O)CN2CCN(CC(=O)O)CCN(CC(=O)O)CCN(CC(=O)O)CC2)CC1)C(=O)O)C(=O)O
2.36 nM	1.00	1.65 nM	O=C(O)CC[C@H](NC(=O)N[C@@H](CCCCNC(=O)[C@H](Cc1ccc2ccccc2c1)NC(=O)[C@H]1CC[C@H](CNC(=O)CN2CCN(CC(=O)O)CCN(CC(=O)O)CCN(CC(=O)O)CC2)CC1)C(=O)O)C(=O)O [PSMA-617, reference compound]
1.52 nM	–	–	O=C(O)CC[C@H](NC(=O)N[C@@H](CCCCNC(=O)[C@H](Cc1ccc2ccccc2c1)NC(=O)[C@H]1CC[C@@]2(CC1)CN(C(=O)CN1CCN(CC(=O)O)CCN(CC(=O)O)CCN(CC(=O)O)CC1)CCO2)C(=O)O)C(=O)O [drawing 156]
